According to ChEMBL document CHEMBL1909046, “DrugMatrix in vitro pharmacology data”:
Where a SMILES comes first, the peptide text is derived from it. Bridges are numbered along the chain shown (N, C = ends). [ ]: non-standard residue; d: D form. The star is where a group is joined. Threoninol(2S,3R) = C[C@@H](O)[C@H](CO)N*

Key:
[1] = DRUGMATRIX: Purinergic P2X radioligand binding (ligand: [3H] alpha, beta-Methylene-ATP); type: cell membranes, Oryctolagus cuniculus, New Zealand albino, Urinary bladder, Membrane; conditions: Not Active = under 50% inhibition at 10 µM
Glucocorticoid receptor = target: T1, Glucocorticoid receptor (Homo sapiens, UniProt P04150); conditions: hela s3; note: in other assays of this panel Not Active means under 50% inhibition at 10 µM
T1 sequence (P04150 whole entry): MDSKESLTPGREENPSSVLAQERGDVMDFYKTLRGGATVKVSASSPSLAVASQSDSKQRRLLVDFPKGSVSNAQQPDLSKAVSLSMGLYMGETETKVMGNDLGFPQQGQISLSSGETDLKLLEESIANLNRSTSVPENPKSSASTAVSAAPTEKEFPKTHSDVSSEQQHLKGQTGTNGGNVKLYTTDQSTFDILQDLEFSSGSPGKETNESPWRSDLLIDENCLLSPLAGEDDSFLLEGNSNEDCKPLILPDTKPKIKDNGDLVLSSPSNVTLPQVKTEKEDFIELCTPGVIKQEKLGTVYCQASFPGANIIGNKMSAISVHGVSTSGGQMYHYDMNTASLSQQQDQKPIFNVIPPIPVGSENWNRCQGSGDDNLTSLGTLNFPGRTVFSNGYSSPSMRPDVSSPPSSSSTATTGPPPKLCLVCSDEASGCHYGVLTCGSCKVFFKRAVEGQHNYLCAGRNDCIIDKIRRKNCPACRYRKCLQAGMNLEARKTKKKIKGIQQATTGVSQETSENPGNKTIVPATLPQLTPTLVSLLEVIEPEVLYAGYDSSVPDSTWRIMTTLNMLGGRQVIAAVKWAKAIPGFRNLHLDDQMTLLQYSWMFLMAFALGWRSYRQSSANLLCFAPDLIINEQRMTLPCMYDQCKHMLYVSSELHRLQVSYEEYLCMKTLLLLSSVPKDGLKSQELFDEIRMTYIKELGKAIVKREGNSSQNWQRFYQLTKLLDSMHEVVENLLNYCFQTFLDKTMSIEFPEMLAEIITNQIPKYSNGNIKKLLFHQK

Compound: O=C1CC[C@H](N2C(=O)c3ccccc3C2=O)C(=O)N1
- IC50 [1]: Not Active
- Ki [1]: Not Active
- IC50 (Glucocorticoid receptor): Not Active

Compound: C[C@@H](O)[C@H](CO)NC(=O)[C@@H]1CSSC[C@H](NC(=O)[C@H](N)Cc2ccccc2)C(=O)N[C@@H](Cc2ccccc2)C(=O)N[C@H](Cc2c[nH]c3ccccc23)C(=O)N[C@@H](CCCCN)C(=O)N[C@@H]([C@@H](C)O)C(=O)N1 (H-[dF]CF[dW]KTC-{Threoninol(2S,3R)}; disulfide 2-7)
- IC50 [1]: Not Active
- Ki [1]: Not Active
- IC50 (Glucocorticoid receptor): Not Active

Compound: CCCC(=O)Nc1ccc(OCC(O)CNC(C)C)c(C(C)=O)c1 (stereo not drawn) [ACEBUTOLOL]
- IC50 [1]: Not Active
- Ki [1]: Not Active
- IC50 (Glucocorticoid receptor): Not Active

Compound: N=C(N)NC(=O)c1nc(Cl)c(N)nc1N [AMILORIDE]
- IC50 [1]: Not Active
- Ki [1]: Not Active
- IC50 (Glucocorticoid receptor): Not Active

Compound: CN1C(=O)COc2c(C(=O)NC3CN4CCC3CC4)cc(Cl)cc21 (stereo not drawn) [AZASETRON]
- IC50 [1]: Not Active
- Ki [1]: Not Active

Compound: C[C@H]1C[C@H]2[C@@H]3CCC4=CC(=O)C=C[C@]4(C)[C@@]3(Cl)[C@@H](O)C[C@]2(C)[C@@]1(O)C(=O)CO [BECLOMETHASONE]
- IC50 [1]: Not Active
- Ki [1]: Not Active

Compound: CCOC(=O)[C@H](CCc1ccccc1)N[C@H]1CCc2ccccc2N(CC(=O)O)C1=O [BENAZEPRIL]
- IC50 [1]: Not Active
- Ki [1]: Not Active
- IC50 (Glucocorticoid receptor): Not Active

Compound: Nc1c(CC(=O)O)cccc1C(=O)c1ccc(Br)cc1 [BROMFENAC]
- IC50 [1]: Not Active
- Ki [1]: Not Active

Compound: C[C@@]12C(=O)OC(=O)[C@]1(C)[C@H]1CC[C@@H]2O1 [CANTHARIDIN]
- IC50 [1]: Not Active
- Ki [1]: Not Active
- IC50 (Glucocorticoid receptor): Not Active

Compound: CC1=C(C(=O)O)N2C(=O)[C@@H](NC(=O)[C@H](N)c3ccccc3)[C@H]2SC1 [CEPHALEXIN ANHYDROUS]
- IC50 [1]: Not Active
- Ki [1]: Not Active
- IC50 (Glucocorticoid receptor): Not Active

Compound: O=C(N[C@H](CO)[C@H](O)c1ccc([N+](=O)[O-])cc1)C(Cl)Cl [CHLORAMPHENICOL]
- IC50 [1]: Not Active
- Ki [1]: Not Active

Compound: ClC(Cl)Cl [CHLOROFORM]
- IC50 [1]: Not Active
- Ki [1]: Not Active
- IC50 (Glucocorticoid receptor): Not Active

Compound: C=C1CC[C@H](O)C/C1=C/C=C1\CCC[C@]2(C)[C@@H]([C@H](C)CCCC(C)C)CC[C@@H]12 [CHOLECALCIFEROL]
- IC50 [1]: Not Active
- Ki [1]: Not Active
- IC50 (Glucocorticoid receptor): Not Active

Compound: C[N+](C)(C)CCO.[Cl-] [CHOLINE CHLORIDE]
- IC50 [1]: Not Active
- Ki [1]: Not Active

Compound: CCOC(=O)C(C)(C)Oc1ccc(Cl)cc1 [CLOFIBRATE]
- IC50 [1]: Not Active
- Ki [1]: Not Active
- IC50 (Glucocorticoid receptor): Not Active

Compound: O=c1ccc2ccccc2o1 [COUMARIN]
- IC50 [1]: Not Active
- Ki [1]: Not Active

Compound: C[C@@H]1C[C@@H]([C@H](O)CC2CC(=O)NC(=O)C2)C(=O)[C@@H](C)C1 [CYCLOHEXIMIDE]
- IC50 [1]: Not Active
- Ki [1]: Not Active

Compound: C/C=C/C[C@@H](C)[C@@H](O)[C@H]1C(=O)N[C@@H](CC)C(=O)N(C)CC(=O)N(C)[C@@H](CC(C)C)C(=O)N[C@@H](C(C)C)C(=O)N(C)[C@@H](CC(C)C)C(=O)N[C@@H](C)C(=O)N[C@H](C)C(=O)N(C)[C@@H](CC(C)C)C(=O)N(C)[C@@H](CC(C)C)C(=O)N(C)[C@@H](C(C)C)C(=O)N1C [CYCLOSPORINE]
- IC50 [1]: Not Active
- Ki [1]: Not Active

Compound: CN(C)/N=N/c1[nH]cnc1C(N)=O [DACARBAZINE]
- IC50 [1]: Not Active
- Ki [1]: Not Active
- IC50 (Glucocorticoid receptor): Not Active

Compound: COc1ccc2c(c1)[C@]13CCCC[C@@H]1[C@H](C2)N(C)CC3 [DEXTROMETHORPHAN]
- IC50 [1]: Not Active
- Ki [1]: Not Active
- IC50 (Glucocorticoid receptor): Not Active

Compound: CC(=O)Nc1c(I)c(NC(C)=O)c(I)c(C(=O)O)c1I [DIATRIZOIC ACID]
- IC50 [1]: Not Active
- Ki [1]: Not Active
- IC50 (Glucocorticoid receptor): Not Active

Compound: COP(=O)(OC)OC=C(Cl)Cl [DICHLORVOS]
- IC50 [1]: Not Active
- Ki [1]: Not Active

Compound: COc1cccc2c1C(=O)c1c(O)c3c(c(O)c1C2=O)C[C@@](O)(C(=O)CO)C[C@@H]3O[C@H]1C[C@H](N)[C@H](O)[C@H](C)O1 [DOXORUBICIN]
- IC50 [1]: Not Active
- Ki [1]: Not Active
- IC50 (Glucocorticoid receptor): Not Active

Compound: COc1cccc2c1C(=O)c1c(O)c3c(c(O)c1C2=O)C[C@@](O)(C(=O)CO)C[C@@H]3O[C@H]1C[C@H](N)[C@@H](O)[C@H](C)O1 [EPIRUBICIN]
- IC50 [1]: Not Active
- Ki [1]: Not Active
- IC50 (Glucocorticoid receptor): Not Active

Compound: C[C@]12CC[C@@H]3c4ccc(O)cc4CC[C@H]3[C@@H]1CC[C@@H]2O [ESTRADIOL]
- IC50 [1]: Not Active
- Ki [1]: Not Active

Compound: CC[C@@H](CO)NCCN[C@@H](CC)CO [ETHAMBUTOL]
- IC50 [1]: Not Active
- Ki [1]: Not Active

Compound: Cc1ccc(S(=O)(=O)NC(=O)NN2CC3CCCC3C2)cc1 (stereo not drawn) [GLICLAZIDE]
- IC50 [1]: Not Active
- Ki [1]: Not Active

Compound: NC(=O)NO [HYDROXYUREA]
- IC50 [1]: Not Active
- Ki [1]: Not Active
- IC50 (Glucocorticoid receptor): Not Active

Compound: CC(C)Cc1ccc(C(C)C(=O)O)cc1 (stereo not drawn) [IBUPROFEN]
- IC50 [1]: Not Active
- Ki [1]: Not Active
- IC50 (Glucocorticoid receptor): Not Active

Compound: CCc1c2c(nc3ccc(OC(=O)N4CCC(N5CCCCC5)CC4)cc13)-c1cc3c(c(=O)n1C2)COC(=O)[C@]3(O)CC [IRINOTECAN]
- IC50 [1]: Not Active
- Ki [1]: Not Active
- IC50 (Glucocorticoid receptor): Not Active

Compound: CC(C(=O)O)c1cccc(C(=O)c2ccccc2)c1 (stereo not drawn) [KETOPROFEN]
- IC50 [1]: Not Active
- Ki [1]: Not Active

Compound: Nc1ccn([C@@H]2CS[C@H](CO)O2)c(=O)n1 [LAMIVUDINE]
- IC50 [1]: Not Active
- Ki [1]: Not Active
- IC50 (Glucocorticoid receptor): Not Active

Compound: O=S(=O)([O-])CCS.[Na+] [MESNA]
- IC50 [1]: Not Active
- Ki [1]: Not Active
- IC50 (Glucocorticoid receptor): Not Active

Compound: C#C[C@]1(O)CC[C@H]2[C@@H]3CCc4cc(OC)ccc4[C@H]3CC[C@@]21C [MESTRANOL]
- IC50 [1]: Not Active
- Ki [1]: Not Active
- IC50 (Glucocorticoid receptor): Not Active

Compound: Cc1ncc([N+](=O)[O-])n1CCO [METRONIDAZOLE]
- IC50 [1]: Not Active
- Ki [1]: Not Active

Compound: CC(C)(C(=O)c1cccnc1)c1cccnc1 [METYRAPONE]
- IC50 [1]: Not Active
- Ki [1]: Not Active
- IC50 (Glucocorticoid receptor): Not Active

Compound: COc1ccc2cc([C@H](C)C(=O)O)ccc2c1 [NAPROXEN]
- IC50 [1]: Not Active
- Ki [1]: Not Active

Compound: CC(C)[C@H]1CC[C@H](C(=O)N[C@H](Cc2ccccc2)C(=O)O)CC1 [NATEGLINIDE]
- IC50 [1]: Not Active
- Ki [1]: Not Active
- IC50 (Glucocorticoid receptor): Not Active

Compound: CCN[C@@H]1C[C@H](N)[C@@H](O[C@H]2OC(CN)=CC[C@H]2N)[C@H](O)[C@H]1O[C@H]1OC[C@](C)(O)[C@H](NC)[C@H]1O [NETILMICIN]
- IC50 [1]: Not Active
- Ki [1]: Not Active

Compound: COC(=O)C1=C(C)NC(C)=C(C(=O)OCC(C)C)C1c1ccccc1[N+](=O)[O-] (stereo not drawn) [NISOLDIPINE]
- IC50 [1]: Not Active
- Ki [1]: Not Active
- IC50 (Glucocorticoid receptor): Not Active

Compound: COc1ccc2[nH]c([S+]([O-])Cc3ncc(C)c(OC)c3C)nc2c1 (stereo not drawn) [OMEPRAZOLE]
- IC50 [1]: Not Active
- Ki [1]: Not Active

Compound: Cc1nccn1CC1CCc2c(c3ccccc3n2C)C1=O (stereo not drawn) [ONDANSETRON]
- IC50 [1]: Not Active
- Ki [1]: Not Active
- IC50 (Glucocorticoid receptor): Not Active

Compound: CCn1cc(C(=O)O)c(=O)c2cc(F)c(N3CCN(C)CC3)cc21 [PEFLOXACIN]
- IC50 [1]: Not Active
- Ki [1]: Not Active
- IC50 (Glucocorticoid receptor): Not Active

Compound: CCCCOc1ccc(OCCCN2CCOCC2)cc1 [PRAMOXINE]
- IC50 [1]: Not Active
- Ki [1]: Not Active

Compound: CCN(CC)CCOC(=O)c1ccc(N)cc1 [PROCAINE]
- IC50 [1]: Not Active
- Ki [1]: Not Active

Compound: Cc1cc2cc3c(C)cc(=O)oc3c(C)c2o1 [TRIOXSALEN]
- IC50 [1]: Not Active
- Ki [1]: Not Active
